Assay results from patent US6358995B1, “Carboxylic acid derivatives having fused rings” (Eisai Co., Ltd., priority 1996, dated 2002).

Key:
Experiment in all cases: Transcription accelerating activity through RARs (PLAP reporter in COS-1 cells)
Format in all cases: cell-based
Conditions in all cases: relative to ED30 of all-trans retinoic acid = 1, ED30 = concentration giving 30% of activity induced by 1 μM all-trans retinoic acid
RAR-β = target: T1, RAR-β (Homo sapiens, UniProt P10826)
T1 construct: expressed in transfected cells; host or cells: COS-1 (African green monkey kidney cells), transient lipofection
T1 sequence (P10826 1-455): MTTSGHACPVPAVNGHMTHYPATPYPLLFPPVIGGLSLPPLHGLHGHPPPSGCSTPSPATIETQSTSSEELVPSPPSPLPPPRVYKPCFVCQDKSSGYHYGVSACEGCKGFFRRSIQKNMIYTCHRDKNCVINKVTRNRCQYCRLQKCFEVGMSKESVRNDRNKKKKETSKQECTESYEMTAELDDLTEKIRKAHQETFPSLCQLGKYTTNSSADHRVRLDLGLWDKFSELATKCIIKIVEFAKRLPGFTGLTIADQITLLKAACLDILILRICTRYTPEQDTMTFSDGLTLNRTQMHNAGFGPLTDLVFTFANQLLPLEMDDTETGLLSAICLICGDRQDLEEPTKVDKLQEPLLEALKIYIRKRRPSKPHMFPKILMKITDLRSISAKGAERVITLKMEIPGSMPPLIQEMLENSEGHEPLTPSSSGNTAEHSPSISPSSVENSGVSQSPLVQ
Text: (§1) Measurement of the Activities of Accelerating Trans-cription Through RARs
(§2) Human RAR Expression Vectors and secretory alkaline phosphatase (PLAP) gene vectors (PLAP vectors) containing in a state integrated into the upstream a competent sequence whose expression is […] through binding with RAR depending on a ligand were temporarily transferred into COS-1 (African green monkey kidney cells), and the PLAP which had been produced depending on a ligand and secreted into a culture medium was analyzed by the chemiluminescence method to determine the transcription-accelerating activity of each compound. Further, the selectivity of each compound among RARs was determined by comparing the transcription accelerating activities of the compound for the receptors with each other.
(§3) On a 60-mm culture dish were scattered 2.5×10^4 COS-1 cells. Four days after, human RAR α, β and γ expression vectors and PLAP vectors were transferred into the cells each in an amount of 4 μg by the lipofection method. Another day after, the resulting cells were recovered, and put on a 96-well culture plate in an amount of 2×10^4 per unit well. Four hours after, the cells were put on a medium containing charcoal-treated fetal bovine serum, followed by the addition of a dilution of all-trans retinoic acid or a test compound. After the lapse of 36 hours, the supernatant was recovered and the resulting samples were treated at 65° C. for 10 minutes to eliminate the non-specific activity. 15 μl of each sample was mixed with 60 μl of a 28 mM sodium carbonate buffer(pH10), followed by the addition of 75 μl of Smilight (trade name, a product of Sumitomo Metal Industries, Ltd., substrate for chemiluminescence). The resulting mixture was reacted at 37° C. for 30 minutes and the intensity of luminescence was determined. The compounds which will be described below induced the transcription activities of RARs dependently on the concentration.

RAR-γ = target: T2, RAR-γ (Homo sapiens, UniProt P13631)
T2 construct: expressed in transfected cells; host or cells: COS-1 (African green monkey kidney cells), transient lipofection
T2 sequence (P13631 1-454): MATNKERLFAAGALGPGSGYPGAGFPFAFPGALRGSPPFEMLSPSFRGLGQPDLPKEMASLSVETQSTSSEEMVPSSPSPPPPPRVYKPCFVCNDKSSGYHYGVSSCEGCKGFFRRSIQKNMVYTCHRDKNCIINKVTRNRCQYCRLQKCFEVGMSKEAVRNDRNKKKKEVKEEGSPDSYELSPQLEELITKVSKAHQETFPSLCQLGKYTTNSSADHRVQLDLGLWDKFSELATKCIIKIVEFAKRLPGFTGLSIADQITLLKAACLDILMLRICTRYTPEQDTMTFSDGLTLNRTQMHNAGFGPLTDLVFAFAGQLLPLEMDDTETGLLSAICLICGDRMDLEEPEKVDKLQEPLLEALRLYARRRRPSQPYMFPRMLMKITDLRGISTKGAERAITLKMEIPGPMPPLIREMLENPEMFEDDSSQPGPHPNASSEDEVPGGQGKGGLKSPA
Text: as §1, §2, §3

RAR-α = target: T3, RAR-α (Homo sapiens, UniProt P10276)
T3 construct: expressed in transfected cells; host or cells: COS-1 (African green monkey kidney cells), transient lipofection
T3 sequence (P10276 1-462): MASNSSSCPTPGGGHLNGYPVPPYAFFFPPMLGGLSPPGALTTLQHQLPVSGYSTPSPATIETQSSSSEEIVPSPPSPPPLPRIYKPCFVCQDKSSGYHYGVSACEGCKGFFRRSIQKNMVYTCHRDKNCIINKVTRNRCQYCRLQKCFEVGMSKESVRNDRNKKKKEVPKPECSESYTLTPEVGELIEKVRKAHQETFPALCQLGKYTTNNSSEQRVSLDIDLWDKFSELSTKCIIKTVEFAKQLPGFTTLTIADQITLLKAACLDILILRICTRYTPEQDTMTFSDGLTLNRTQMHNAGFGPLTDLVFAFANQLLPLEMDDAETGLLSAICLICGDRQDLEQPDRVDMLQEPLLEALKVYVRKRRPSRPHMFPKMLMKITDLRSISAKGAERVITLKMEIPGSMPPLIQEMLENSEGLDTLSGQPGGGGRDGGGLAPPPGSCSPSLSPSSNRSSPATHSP
Text: as §1, §2, §3

Structure (SMILES) | Transcription accelerating activity Relative ED30 RAR-β (RAR-β) | Transcription accelerating activity Relative ED30 RAR-γ (RAR-γ) | Transcription accelerating activity Relative ED30 RAR-α (RAR-α)
Cc1cc(C)c2cc(-c3ccc(-c4ccc(C(=O)O)cc4)[nH]3)oc2c1C [Example 113, 4-{2-[5-(4,6,7-Trimethylbenzofuran-2-yl)pyrrolyl]}benzoic acid] | 24 | 150 | 0.80
Cc1ccc(C)c2c1C=C(c1ccc(-c3ccc(C(=O)O)cc3)[nH]1)CO2 [Example 127, 4-{2-[5-(5,8-Dimethyl-2H-chromen-3-yl)pyrrolyl]}benzoic acid] | 240 | 3600 | 1.8
O=C(O)c1ccc(-c2ccc(-c3cc4c(Cl)cccc4o3)[nH]2)cc1 [Example 60, 4-{2-[5-(4-Chlorobenzofuran-2-yl)pyrrolyl]}benzoic acid] | 110 | 750 | 0.72
Cc1ccc(C)c2oc(-c3ccc(-c4ccc(C(=O)O)cc4)[nH]3)cc12 [Example 13, 4-{2-[5-(4,7-Dimethylbenzofuran-2-yl)pyrrolyl]}benzoic acid] | 13 | 48 | 0.4
O=C(O)c1ccc(-c2ccc(-c3cc4c(Cl)ccc(Cl)c4o3)[nH]2)cc1 [Example 14, 4-{2-[5-(4,7-Dichlorobenzofuran-2-yl)pyrrolyl]}benzoic acid] | 160 | 1400 | 1.0
Cc1cc(C)c2oc(-c3ccc(-c4ccc(C(=O)O)cc4)[nH]3)cc2c1 [Example 50, 4-{2-[5-(5,7-Dimethylbenzofuran-2-yl)pyrrolyl]}benzoic acid] | 280 | 710 | 0.38
O=C(O)c1ccc(-c2ccc(-c3cc4c(F)ccc(Cl)c4o3)[nH]2)cc1 [Example 42, 4-{2-[5-(4-Fluoro-7-chlorobenzofuran-2-yl)pyrrolyl]}benzoic acid] | 91 | 790 | 0.33
CCc1ccc(Cl)c2cc(-c3ccc(-c4ccc(C(=O)O)cc4)[nH]3)oc12 [Example 20, 4-{2-[5-(4-Chloro-7-ethylbenzofuran-2-yl)pyrrolyl]}benzoic acid] | 59 | 300 | 0.66
CCc1ccc(OC)c2ccc(-c3ccc(-c4ccc(C(=O)O)cc4)[nH]3)cc12 [Example 90, 4-{2-[5-(5-Methoxy-8-ethylnaphthalen-2-yl)pyrrolyl]}benzoic acid] | 450 | 1400 | 3.1
